Laboratory results published in paper PMC2063102 (British Journal of Cancer, 1998).
Several values for one entry are separate records, joined by “and”; a condition that tells them apart may be missing. Equal values may be shown once.

Tests used:
Format in all cases: in vivo, C3H/HeN mice
[1] = test system: MDAH-MCa-4 tumours; assay: Tumour growth delay (time to reach 13 mm, treated minus control)
[2] = test system: MDAH-MCa-4 tumours; assay: Tumour blood flow by 99mTc pertechnetate wash-out (clearance rate constant k); conditions: for time course of tumour blood flow inhibition: agent alone: 5-HT 700 µmol kg-1, DMXAA 70 µmol kg-1
[3] = test system: MDAH-MCa-4 tumours; assay: Tumour necrosis / residual viable tissue scored histologically (H&E sections)

With `NCCc1c[nH]c2ccc(O)cc12` [5-HT, 5-hydroxytryptamine] the “dose-modifying factor (DMF) for growth delay (DMXAA dose for 5-day growth delay)” value ([1]; 5-HT 700 µmol kg-1 co-administered with DMXAA) was 2.0, the “Tumour growth delay, Expt 2” value ([1]; single agent i.p.: bioreductive drug at its MTD, DMXAA 80 µmol kg-1, 5-HT 700 µmol kg-1, mean ± s.e.m.) was -2.9 + 0.7 days and the “dose-modifying factor (DMF) for blood flow inhibition by DMXAA” value ([2]; 5-HT 700 µmol kg-1 co-administered with DMXAA, at 4 h) was > 3. The “effect on tumour blood flow at 4 h” value ([2]; 5-HT alone 700 µmol kg-1 i.p.) was “little effect”, the “time course of tumour blood flow inhibition” value [2] was “weak and transient inhibition” and the “dose-modifying factor (DMF) for necrosis (DMXAA dose for 50% reduction of viable tissue)” value ([3]; 5-HT 700 µmol kg-1 co-administered with DMXAA, at 12 h) was 2.3. It also gave a necrotic fraction ([3]; 5-HT alone 700 µmol kg-1, 12 h (control 8.8%)) of 38%.
In the case of `Cc1ccc2c(=O)c3cccc(CC(=O)O)c3oc2c1C` [DMXAA, 5,6-dimethylxanthenone-4-acetic acid], the “predicted growth delay (from regrowth of residual viable tissue)” value ([1]; mouse, in vivo) is reported as 6.0 days and 5.8 days, the “time to maximal tumour blood flow inhibition” value ([2]; DMXAA 20 µmol kg-1 co-administered with 5-HT 700 µmol kg-1) is reported as ≤ 1 h and the “DMXAA dose giving 50% inhibition of tumour blood flow” value ([2]; DMXAA alone i.p., 4 h after administration) is reported as 60 µmol/kg. The “time course of tumour blood flow inhibition” value [2] was “progressive inhibition over 4 h with no recovery by 24 h”, the necrosis ([3]; DMXAA 60 µmol kg-1 and above co-administered with 5-HT 700 µmol kg-1, 12 h) was > 99% and the “threshold dose for the necrotizing effect” value ([3]; DMXAA alone i.p., 12 h) was “approximately 60 µmol kg-1”. The “doubling time of fraction of viable tissue after treatment” value ([3]; between 1 and 4 days after DMXAA 80 µmol kg-1) was 1.0 days.
In the case of `Nc1n[n+]([O-])c2ccccc2[n+]1[O-]` [TIRA, tirapazamine], the “DMF relative to DMXAA alone (5-day growth delay)” value ([1]; mouse, in vivo) is reported as 2.6, the “factor lowering the DMXAA dose required for a 5-day growth delay” value ([1]; mouse, in vivo) is reported as 1.8 and the “Tumour growth delay (one experiment only, column not discernible)” value ([1]; mouse, in vivo, ip) is reported as 2.7 ± 1.4 days.
